Like-named read-outs stand apart in the source and are kept apart here. Starred links: 1 amine or outer side, 2 acyl side, 3 side chain; linkers in the order of their positions; H or OH if unused. Non-standard residues stand in square brackets, D forms with d. Residues, ends and D or L forms follow the SMILES beside them. Groups on a side chain read outwards from the residue. No end group written: not given here. *: point of attachment. C20 diacid = O=C(O)CCCCCCCCCCCCCCCCCCC(=O)*; C18 diacid = O=C(O)CCCCCCCCCCCCCCCCC(=O)*; αMePhe(2-F) = C[C@](N)(Cc1ccccc1F)C(=O)O; γGlu = O=C(O)[C@H](CCC(=O)[*:2])N[*:1]; αMe4Pal = C[C@](N)(Cc1ccncc1)C(=O)O; αMeY = C[C@](N)(Cc1ccc(O)cc1)C(=O)O; 4Pal = N[C@@H](Cc1ccncc1)C(=O)O; αMeL = CC(C)C[C@](C)(N)C(=O)O; αMeS = C[C@](N)(CO)C(=O)O; Orn = NCCC[C@H](N)C(=O)O; AEEA = NCCOCCOCC(=O)O; Aib = CC(C)(N)C(=O)O
What was measured:
Type in all cases: cell-based
hGcgR = hGcgR (Homo sapiens, UniProt P47871); assay: Functional cAMP activation in the presence of 0.1% casein (no HSA); conditions: read-out: Relative cAMP EC50, hGcgR;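 further: intracellular cAMP rise after 30 min at 37 °C, read by HTRF against a cAMP standard curve, scaled from buffer only (0%) to maximal control ligand response (100%)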
Chain of hGcgR (P47871 26-477): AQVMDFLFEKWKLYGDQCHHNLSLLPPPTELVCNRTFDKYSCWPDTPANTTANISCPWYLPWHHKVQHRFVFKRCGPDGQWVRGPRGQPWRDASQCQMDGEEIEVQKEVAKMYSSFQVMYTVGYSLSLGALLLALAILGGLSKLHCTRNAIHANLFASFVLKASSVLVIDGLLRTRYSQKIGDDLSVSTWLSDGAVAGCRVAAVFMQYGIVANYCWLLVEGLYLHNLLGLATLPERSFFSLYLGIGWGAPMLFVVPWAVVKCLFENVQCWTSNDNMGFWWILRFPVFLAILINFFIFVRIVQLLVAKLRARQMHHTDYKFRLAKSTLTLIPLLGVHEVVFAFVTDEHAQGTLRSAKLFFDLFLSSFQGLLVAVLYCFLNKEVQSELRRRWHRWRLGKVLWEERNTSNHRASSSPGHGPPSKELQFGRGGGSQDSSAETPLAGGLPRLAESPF

hGIPR [1] = biological target: T1, hGIPR (Homo sapiens, UniProt P48546); assay: as above; conditions: read-out: Relative cAMP EC50, hGIPR;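 further: intracellular cAMP rise after 30 min at 37 °C read by HTRF against a standard curve, scaled between buffer alone (0%) and top control ligand concentration (100%), four-parameter fit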
T1 sequence (P48546 22-466): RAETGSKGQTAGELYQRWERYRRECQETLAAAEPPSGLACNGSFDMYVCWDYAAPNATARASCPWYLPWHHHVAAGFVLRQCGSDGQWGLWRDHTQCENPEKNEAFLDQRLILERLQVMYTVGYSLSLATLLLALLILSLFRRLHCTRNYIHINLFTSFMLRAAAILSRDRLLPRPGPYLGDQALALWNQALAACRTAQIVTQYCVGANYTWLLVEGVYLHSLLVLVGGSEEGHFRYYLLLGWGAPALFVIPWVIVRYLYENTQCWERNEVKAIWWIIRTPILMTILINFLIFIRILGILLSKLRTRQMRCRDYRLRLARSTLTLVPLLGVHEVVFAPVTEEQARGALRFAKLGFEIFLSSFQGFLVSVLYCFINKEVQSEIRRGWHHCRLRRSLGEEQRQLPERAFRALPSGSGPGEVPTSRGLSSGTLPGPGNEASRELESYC
Protocol: After a 30-minute incubation at 37° C., the resulting increase in intracellular cAMP is quantitatively determined using the CisBio CAMP Dynamic 2 HTRF Assay Kit (62AM4PEJ). Briefly, cAMP levels within the cell are detected by adding the cAMP-d2 conjugate in cell lysis buffer followed by the antibody anti-cAMP-Eu^3+-Cryptate, also in cell lysis buffer.
Intracellular cAMP levels are determined by extrapolation using a standard curve. Dose response curves of compounds are plotted as the percentage of stimulation normalized to minimum (buffer only) and maximum (maximum concentration of each control ligand) values and analyzed using a four parameter non-linear regression fit with a variable slope (Genedata Screener 13). EC50 is the concentration of compound causing half-maximal simulation in a dose response curve. Each relative EC50 value for the Geometric mean calculation is determined from a curve fitting.

hGLP-1R [2] = biological target: T2, hGLP-1R (Homo sapiens, UniProt P43220); assay: as above; conditions: read-out: Relative cAMP EC50, hGLP-1R;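 further: intracellular cAMP rise after 30 min at 37 °C read by HTRF, normalized between buffer only (0%) and maximal control ligand (100%), four-parameter variable-slope fit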
T2 sequence (P43220 24-463): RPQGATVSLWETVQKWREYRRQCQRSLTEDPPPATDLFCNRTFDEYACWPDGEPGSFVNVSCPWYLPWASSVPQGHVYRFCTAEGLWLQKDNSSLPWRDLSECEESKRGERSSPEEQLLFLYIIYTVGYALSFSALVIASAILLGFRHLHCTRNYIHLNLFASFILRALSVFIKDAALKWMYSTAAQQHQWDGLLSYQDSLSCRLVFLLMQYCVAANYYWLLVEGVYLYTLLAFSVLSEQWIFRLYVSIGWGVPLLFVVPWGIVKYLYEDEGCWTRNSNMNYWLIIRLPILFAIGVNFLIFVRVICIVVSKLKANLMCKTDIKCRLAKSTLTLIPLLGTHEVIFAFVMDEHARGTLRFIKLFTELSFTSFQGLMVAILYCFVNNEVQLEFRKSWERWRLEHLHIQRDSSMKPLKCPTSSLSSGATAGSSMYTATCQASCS

hGLP-1R [3] = biological target: T2, hGLP-1R; assay: Functional cAMP activity in the presence of 1% HSA; conditions: read-out: cAMP Rel EC50, hGLP-1R
human GcgR = human GcgR (Homo sapiens, UniProt P47871); assay: Functional cAMP activity in the presence of 1% HSA; conditions: read-out: cAMP Rel EC50, hGcgR
Chain of human GcgR (P47871 26-477): as the sequence (P47871 26-477) above

hGIPR [4] = biological target: T1, hGIPR; assay: Functional cAMP activity in the presence of 1% HSA; conditions: read-out: cAMP Rel EC50, hGIPR
[5] = in the presence of 0.1% casein (no HSA), geometric mean

| Compound | EC50 (hGcgR) [nM] | EC50 (hGIPR [1]) [nM] | EC50 (hGLP-1R [2]) [nM] | EC50 (hGLP-1R [3]) [nM] | EC50 (human GcgR) [nM] | EC50 (hGIPR [4]) [nM] | EC50 (hGcgR; [5]) [nM] | EC50 (hGIPR [1]; [5]) [nM] | EC50 (hGLP-1R [2]; [5]) [nM] |
| --- | --- | --- | --- | --- | --- | --- | --- | --- | --- |
| H-Y[Aib]QGT[αMePhe(2-F)]TSD[4Pal]SI[αMeL]LD[Orn]K([AEEA-γGlu-C18 diacid])AQ[αMe4Pal][Orn]FI[dE][αMeY]LIEGGPSSGDPPPEGE-NH2 [Example 727] | 2.38 | 0.0109 | 0.271 | 24.1 | 287 | 1.09 | – | – | – |
| Y[Aib]QGTFTSD[4Pal]SR[αMeL]LDKK([γGlu-γGlu-C18 diacid])AQ[αMe4Pal]AFIE[αMe4Pal]LIEGGPSSGAPPPSGSEE-NH2 [Example 959] | – | – | – | 503 | 316 | 24.5 | 2.61 | 0.217 | 5.06 |
| H-Y[Aib]QGT[αMePhe(2-F)]TSD[4Pal][αMeS]I[αMeL]LD[Orn]K([AEEA-γGlu-C18 diacid])AQ[αMe4Pal]EFI[dE][αMeY]LVEGGPSSGEPPPSGSEE-NH2 [Example 736] | 2.85 | 0.014 | 0.489 | 46.3 | 245 | 1.23 | – | – | – |
| Y[Aib]QGT[αMePhe(2-F)]TSDYSKLLDKIAQK([AEEA-γGlu-C20 diacid])AFIQYLIEGGPSSGEPPPSEG-NH2 [Example 338] | – | – | – | 172 | 659 | 10.9 | 4.02 | 0.0733 | 1.22 |
| H-Y[Aib]QGTFTSD[4Pal]SQ[αMeL]LDKK([γGlu-γGlu-C18 diacid])AQ[αMe4Pal]AFIEYLIE[Aib]GPSSGAPPPSGSEE-NH2 [Example 899] | – | – | – | 592 | 814 | 15.6 | 4.4 | 0.133 | 4.11 |
| H-Y[Aib]QGTFTSD[4Pal]S[Orn][αMeL]LD[Orn]K([γGlu-γGlu-C18 diacid])AQ[αMe4Pal]QFIEYLLAGGPSSGAPPPSGSEE-NH2 [Example 1002] | – | – | – | 1290 | 197 | 11.6 | 1.89 | 0.119 | 9.09 |
| H-Y[Aib]QGTFTSDFSK[αMeL]LDKK([AEEA-γGlu-C18 diacid])AQ[Aib]AFIEYLLEGGESSGAPPPSGS-NH2 [Example 146] | – | – | – | 678 | 463 | 74.6 | 2.04 | 0.362 | 2.73 |
| Y[Aib]QGTFTSD[4Pal]SQ[αMeL]LDKK([AEEA-γGlu-C18 diacid])AQ[Aib]AFIEYLLE[dA]GPSSGAPPPSG[4Pal]-NH2 [Example 822] | – | – | – | 322 | 2100 | 18.1 | 11.6 | 0.186 | 2.51 |
| H-Y[Aib]QGTFTSDFS[Orn][αMeL]LDKK([AEEA-γGlu-C20 diacid])AQ[Aib]AFIEYLLAGGPSSGAPPPSGD-NH2 [Example 81] | – | – | – | 430 | 1580 | 50.2 | 7.78 | 0.246 | 2.19 |
| CC[C@H](C)[C@H](NC(=O)[C@H](CC(C)C)NC(=O)[C@](C)(Cc1ccncc1)NC(=O)[C@@H](CCC(=O)O)NC(=O)[C@@H](NC(=O)[C@H](Cc1ccccc1)NC(=O)[C@H](CCCN)NC(=O)C(C)(C)NC(=O)[C@H](CCC(N)=O)NC(=O)[C@H](C)NC(=O)[C@H](CCCCNC(=O)COCCOCCNC(=O)CC[C@H](NC(=O)CCCCCCCCCCCCCCCCC(=O)O)C(=O)O)NC(=O)[C@H](CCCN)NC(=O)[C@H](CC(=O)O)NC(=O)[C@H](CC(C)C)NC(=O)[C@](C)(CC(C)C)NC(=O)[C@@H](NC(=O)[C@](C)(CO)NC(=O)[C@H](Cc1ccncc1)NC(=O)[C@H](CC(=O)O)NC(=O)[C@H](CO)NC(=O)[C@@H](NC(=O)[C@](C)(Cc1ccccc1F)NC(=O)[C@@H](NC(=O)CNC(=O)[C@H](CCC(N)=O)NC(=O)C(C)(C)NC(=O)[C@@H](N)Cc1ccc(O)cc1)[C@@H](C)O)[C@@H](C)O)[C@@H](C)CC)[C@@H](C)CC)C(=O)N[C@@H](CCC(=O)O)C(=O)NCC(=O)NCC(=O)N1CCC[C@H]1C(=O)N[C@@H](CO)C(=O)N[C@@H](CO)C(=O)NCC(=O)N[C@@H](CCC(=O)O)C(=O)N1CCC[C@H]1C(=O)N1CCC[C@H]1C(=O)N1CCC[C@H]1C(=O)N[C@@H](CCC(=O)O)C(N)=O [Example 453] (H-Y[Aib]QGT[αMePhe(2-F)]TSD[4Pal][αMeS]I[αMeL]LD[Orn]K([AEEA-γGlu-C18 diacid])AQ[Aib][Orn]FI[dE][αMe4Pal]LIEGGPSSGEPPPE-NH2) | 7.37 | 0.0184 | 0.374 | 20.6 | 261 | 1.95 | – | – | – |
| CC[C@H](C)[C@H](NC(=O)[C@H](Cc1ccccc1)NC(=O)[C@H](C)NC(=O)C(C)(C)NC(=O)[C@H](CCC(N)=O)NC(=O)[C@H](C)NC(=O)[C@H](CCCCNC(=O)COCCOCCNC(=O)CC[C@H](NC(=O)CCCCCCCCCCCCCCCCC(=O)O)C(=O)O)NC(=O)[C@H](CCCCN)NC(=O)[C@H](CC(=O)O)NC(=O)[C@H](CC(C)C)NC(=O)[C@](C)(CC(C)C)NC(=O)[C@@H](NC(=O)[C@H](CO)NC(=O)[C@H](Cc1ccncc1)NC(=O)[C@H](CC(=O)O)NC(=O)[C@H](CO)NC(=O)[C@@H](NC(=O)[C@](C)(Cc1ccccc1F)NC(=O)[C@@H](NC(=O)CNC(=O)[C@H](CCC(N)=O)NC(=O)C(C)(C)NC(=O)[C@@H](N)Cc1ccc(O)cc1)[C@@H](C)O)[C@@H](C)O)[C@@H](C)CC)C(=O)N[C@@H](CCC(=O)O)C(=O)N[C@@H](Cc1ccc(O)cc1)C(=O)N[C@@H](CC(C)C)C(=O)N[C@@H](CCC(=O)O)C(=O)N[C@@H](CCC(=O)O)C(=O)NCC(=O)NCC(=O)N1CCC[C@H]1C(=O)N[C@@H](CO)C(=O)N[C@@H](CO)C(=O)NCC(=O)N[C@@H](C)C(=O)N1CCC[C@H]1C(=O)N1CCC[C@H]1C(=O)N1CCC[C@H]1C(=O)N[C@@H](CO)C(N)=O [Example 422] (H-Y[Aib]QGT[αMePhe(2-F)]TSD[4Pal]SI[αMeL]LDKK([AEEA-γGlu-C18 diacid])AQ[Aib]AFIEYLEEGGPSSGAPPPS-NH2) | 14.5 | 0.0216 | 0.252 | 27.1 | 493 | 4.4 | – | – | – |
| H-Y[Aib]QGTFTSD[4Pal]SK[αMeL]LDKK([AEEA-γGlu-C18 diacid])AQ[Aib]AFIEYLIEGGPSSGAPPPSGS-NH2 [Example 908] | – | – | – | 174 | 980 | 26.7 | 8.11 | 0.246 | 1.2 |
| H-Y[Aib]QGTFTSD[4Pal]S[Orn][αMeL]LDKK([AEEA-γGlu-C18 diacid])AQ[αMe4Pal]AFIE[αMe4Pal]LIEGGPSSGAPPPSGS-NH2 [Example 949] | – | – | – | 721 | 317 | 26 | 1.62 | 0.203 | 3.37 |
| Y[Aib]QGT[αMePhe(2-F)]TSD[4Pal][αMeS]I[αMeL]LD[Orn]K([γGlu-γGlu-C18 diacid])AQ[αMe4Pal]EFI[dE][αMeY]LVEGGPSSGEPPPSGSEE-NH2 [Example 740] | 5.34 | 0.012 | 0.453 | 29.7 | 181 | 0.629 | – | – | – |
| H-Y[Aib]QGT[αMePhe(2-F)]TSD[4Pal][αMeS]I[αMeL]LD[Orn]K([AEEA-γGlu-C18 diacid])AQ[αMe4Pal]EFI[dE][αMeY]LVEGGPSSGEPPPEGE-NH2 [Example 1159] | – | – | – | 64.1 | 238 | 1.29 | 1.86 | 0.0118 | 0.45 |
| Y[Aib]QGTFTSD[4Pal]SQ[αMeL]LDKK([γGlu-dE-dE-C18 diacid])AQ[αMe4Pal]AFIEYLIE[Aib]GPSSGAPPPSGSE-NH2 [Example 926] | – | – | – | 600 | 1380 | 13.5 | 13.2 | 0.166 | 7.71 |
| H-Y[Aib]QGT[αMePhe(2-F)]TSD[4Pal]SI[αMeL]LD[Orn]K([γGlu-γGlu-C18 diacid])AQ[αMe4Pal]EFI[dE][αMeY]LIEGGPSSGAPPPSGE-NH2 [Example 616] | 6.58 | 0.00727 | 0.29 | 28.9 | 734 | 0.467 | – | – | – |
| H-Y[Aib]QGTFTSD[4Pal]SQ[αMeL]LD[Orn]K([γGlu-γGlu-C18 diacid])AQ[αMe4Pal]QFIEYLLAGGPSSGAPPPSGSEE-NH2 [Example 1006] | – | – | – | 574 | 315 | 11.8 | 4.28 | 0.109 | 5.12 |
| H-Y[Aib]QGT[αMePhe(2-F)]TSD[4Pal]SI[αMeL]LD[Orn]K([AEEA-γGlu-C18 diacid])AQ[αMe4Pal]EFI[dE][αMeY]LQEGGPSSGEPPPSGS-NH2 [Example 648] | 20.3 | 0.0392 | 1.76 | 86.5 | 1170 | 1.4 | – | – | – |
